Patent publication US9994554B2, “Barbiturate and thiobarbiturate compounds for use in cancer therapy” (NUHOPE, LLC, priority 2011, dated 2018)

What follows are molecules tested on U87-MG cells (assay: U87-MG resazurin cell assay (Example 13)). Details: Homo sapiens, U-87 MG; U87-MG, 5 days (120 hrs) incubation; read-out: Activity Score (Mean pXC50) (converted).
Assay type: cell-based
Experimental: U87-MG cells were obtained from the ATCC, LGC Standards (#HTB-14). The cells were screened for mycoplasma (Mycoplasma Experience) and maintained in Biowhittaker Alpha MEM (Lonza #BE02-002F+10% dialyzed US FBS serum (Invitrogen #26400-044), 1% Penstrep (Gibco #15140-122).
Compounds to be tested were transferred into column 1 of a hit plate (96-well PPV Greiner #651201). 20 ul of DMSO was added to columns 2 to 11. The top concentration was 10 mM.
Serial dilution, ten-point one in three dilution curves were created using Perkin Elmer Janus (20 ul clear Robopack disposable tips #6000677 used).
2 ul of each of the compounds was transferred by pre-dispensing into black, clear bottom 96-well CellBIND Corning plates (Fisher #DPS-184-030R) using Platemate 2×2 (ThermoFisher Darts #5506).
200 μl of U87-MG cells were added to columns 1 to 11 at a density of 1000 cells per ml, and media only was dispensed into control column 12 using Wellmate (Small bore tubing set #201-30002).
After 5 days (120 hrs) incubation at 37° C. under 5% CO2 in a humidified incubator, the assay was “stopped” by addition of Resazurin sodium salt at 0.5 mM final concentration (Sigma R7017). The plates were incubated for a further 4 hrs before resorufin readout was taken from a Perkin Elmer EnVision, 550 nm excitation (photo550, Barcode 312), 580 nm emission (M580, Barcode 233), Top Mirror BODIPY (D555, Barcode 405).

| Structure (SMILES) | IC50 |
| --- | --- |
| O=C1NC(=O)C(Cc2ccccc2)C(=O)N1 [DDD00175824] | > 100 µM |
| COc1ccc2c(c1)OCC(C=C1C(=O)N(C)C(=O)N(C)C1=O)=C2 [DDD00175826] | 31.6 to 100 µM |
| CCN1C(=O)NC(=O)/C(=C\C=C\c2ccc(F)cc2)C1=O [DDD00175841] | 1 to 10 µM |
| O=C1NC(=O)C(=C/C=C/c2ccc(Cl)cc2Cl)C(=O)N1 [DDD00175271] | 1 to 10 µM |
| O=C1NC(=O)C(=C/C=C/c2cccc(F)c2)C(=O)N1 [DDD00197332] | 1 to 10 µM |
| CN1C(=O)C(=Cc2ccco2)C(=O)N(C)C1=O [DDD00175280] | > 100 µM |
| O=C1NC(=O)C(=Cc2cccc(Cl)c2)C(=O)N1 [DDD00175823] | > 100 µM |
| CCN1C(=O)C(=C/C=C/c2ccc(N(C)C)cc2)C(=O)N(CC)C1=S [DDD00197342] | 31.6 to 100 µM |
| CCN1C(=O)C(=C/C=C/c2ccc(F)cc2)C(=O)N(CC)C1=S [DDD00175839] | 31.6 to 100 µM |
| CN(C)c1ccccc1/C=C/C=C1C(=O)NC(=S)NC1=O [DDD00197337] | 10 to 31.6 µM |
| CN1C(=O)C(=CC2=Cc3cc(Cl)ccc3OC2)C(=O)N(C)C1=O [DDD00175830] | 31.6 to 100 µM |
| CCN1C(=O)NC(=O)/C(=C\C=C\c2ccc(N(C)C)cc2)C1=O [DDD00175804] | 1 to 10 µM |
| N#Cc1ccc(/C=C/C=C2C(=O)NC(=O)NC2=O)cc1 [DDD00175802] | 10 to 31.6 µM |
| Cc1ccc(/C=C/C=C2C(=O)NC(=O)NC2=O)cc1 [DDD00175796] | 1 to 10 µM |
| CCN1C(=O)/C(=C/C=C/c2ccccc2OC)C(=O)NC1=S [DDD00197355] | 1 to 10 µM |
| Cc1ccc(/C=C/C=C2C(=O)NC(=S)NC2=O)cc1 [DDD00175798] | 1 to 10 µM |
| Cc1ccccc1/C=C/C=C1C(=O)NC(=S)NC1=O [DDD00197329] | 1 to 10 µM |
| CCN1C(=O)NC(=O)/C(=C\C=C\c2ccccc2OC)C1=O [DDD00175817] | 1 to 10 µM |
| N#Cc1ccccc1/C=C/C=C1C(=O)NC(=O)NC1=O [DDD00197348] | 1 to 10 µM |
| O=C1NC(=O)C(=Cc2cccc(F)c2)C(=O)N1 [DDD00175822] | > 100 µM |
| CCN1C(=O)/C(=C/C=C/c2ccccc2C)C(=O)NC1=S [DDD00197330] | 1 to 10 µM |
| CCN1C(=O)NC(=O)/C(=C\C=C\c2ccccc2N(C)C)C1=O [DDD00197344] | 1 to 10 µM |

| Structure (SMILES) | IC50 |
| --- | --- |
| O=C1NC(=O)C(=CC2=Cc3ccccc3OC2)C(=O)N1 [DDD00175835] | 31.6 to 100 µM |
| CN1C(=O)C(=C/C=C/c2c(F)cccc2F)C(=O)N(C)C1=O [DDD00197343] | 1 to 10 µM |
| CN1C(=O)C(=C/C=C/c2ccccc2)C(=O)N(C)C1=O [DDD00175285] | 1 to 10 µM |
| O=C1NC(=O)C(=C/C=C/c2cccc(Cl)c2)C(=O)N1 [DDD00175302] | ≤ 1 µM |
| COc1ccccc1/C=C/C=C1C(=O)NC(=O)NC1=O [DDD00175832] | 1 to 10 µM |
| CCN1C(=O)C(=C/C=C/c2c(F)cccc2F)C(=O)N(CC)C1=S [DDD00197345] | 31.6 to 100 µM |
| O=C1NC(=S)NC(=O)C1=C/C=C/c1cccc(F)c1 [DDD00197339] | 1 to 10 µM |
| CN1C(=O)C(=Cc2c[nH]c3ccccc23)C(=O)N(C)C1=O [DDD00175791] | > 100 µM |
| Cc1ccccc1/C=C/C=C1C(=O)NC(=O)NC1=O [DDD00175809] | 1 to 10 µM |
| COc1ccc(/C=C/C=C2C(=O)NC(=O)NC2=O)cc1 [DDD00175799] | 1 to 10 µM |
| CCN1C(=O)NC(=O)/C(=C\C=C\c2cccc(Cl)c2)C1=O [DDD00175297] | ≤ 1 µM |
| O=C1NC(=O)C(=CC2CCCCC2)C(=O)N1 [DDD00175825] | > 100 µM |
| CCN1C(=O)C(=C/C=C/c2ccccc2OC)C(=O)N(CC)C1=S [DDD00197350] | 10 to 31.6 µM |
| CCN1C(=O)NC(=O)/C(=C\C=C\c2ccc(C)cc2)C1=O [DDD00175801] | 1 to 10 µM |
| CN1C(=O)C(=C/C=C/c2ccccc2N(C)C)C(=O)N(C)C1=O [DDD00197338] | 1 to 10 µM |
| CN(C)c1ccccc1/C=C/C=C1C(=O)NC(=O)NC1=O [DDD00197357] | 1 to 10 µM |
| O=C1NC(=O)C(=C/C=C/c2ccccc2F)C(=O)N1 [DDD00175808] | 1 to 10 µM |
| CN1C(=O)C(=C/C=C/C2CCCCC2)C(=O)N(C)C1=O [DDD00197709] | 10 to 31.6 µM |
| COc1cccc(C=C2C(=O)NC(=O)NC2=O)c1 [DDD00175827] | > 100 µM |
| CCN1C(=O)NC(=O)/C(=C\C=C\c2ccccc2C)C1=O [DDD00175813] | 1 to 10 µM |
| CCN1C(=O)NC(=O)/C(=C\C=C\c2cccc(F)c2)C1=O [DDD00197347] | 1 to 10 µM |
| CCN1C(=O)/C(=C\C=C\c2ccccc2)C(=O)N(C2CCOCC2)C1=O [DDD00175789] | 1 to 10 µM |

| Structure (SMILES) | IC50 |
| --- | --- |
| CCN1C(=O)C(=C/C=C/c2ccccc2C)C(=O)N(CC)C1=S [DDD00175816] | 10 to 31.6 µM |
| CN1C(=O)C(=C/C=C/c2ccc(N(C)C)cc2)C(=O)N(C)C1=O [DDD00175795] | 31.6 to 100 µM |
| O=C1NC(=O)C(=C/C=C/c2ccc(Cl)cc2)C(=O)N1 [DDD00175286] | ≤ 1 µM |
| O=C1NC(=O)C(=Cc2ccccc2)C(=O)N1 [DDD00175828] | > 100 µM |
| CN1C(=O)C(C(C)(O)/C=C/c2ccccc2)C(=O)N(C)C1=O (stereo not shown) [DDD00197352] | > 100 µM |
| COc1ccccc1/C=C/C=C1C(=O)N(C)C(=O)N(C)C1=O [DDD00175818] | 1 to 10 µM |
| CN1C(=O)C(=C/C=C/c2cccc(N(C)C)c2)C(=O)N(C)C1=O [DDD00197346] | 1 to 10 µM |
| O=C1NC(=O)C(=Cc2c[nH]c3ccccc23)C(=O)N1 [DDD00175790] | > 100 µM |
| CCN1C(=O)C(=C/C=C/c2ccc(Cl)cc2)C(=O)N(CC)C1=S [DDD00175281] | 31.6 to 100 µM |
| Cn1cc(/C=C/c2ccccc2)c(=O)n(C)c1=O [DDD00197671] | > 100 µM |
| O=C1NC(=O)C(=Cc2ccccc2F)C(=O)N1 [DDD00175821] | > 100 µM |
| COc1ccc(C=C2C(=O)NC(=O)NC2=O)cc1 [DDD00175838] | > 100 µM |
| O=C1NC(=O)C(=Cc2ccc(F)cc2)C(=O)N1 [DDD00175831] | > 100 µM |
| O=C1NC(=O)C(=C/C=C/c2cccnc2)C(=O)N1 [DDD00197336] | 10 to 31.6 µM |
| CCN1C(=O)C(=C2C=C(c3ccccc3)CCC2)C(=O)N(CC)C1=S [DDD00175338] | > 100 µM |
| O=C1NC(=O)C(=Cc2ccc(Cl)c(Cl)c2)C(=O)N1 [DDD00175836] | > 100 µM |
| CCN1C(=O)NC(=O)/C(=C2\C=C(c3ccccc3)CCC2)C1=O [DDD00175332] | > 100 µM |
| N#Cc1ccc(/C=C/C=C2C(=O)NC(=S)NC2=O)cc1 [DDD00175806] | 31.6 to 100 µM |
| O=C1NC(=O)C(=C/C=C/c2c(F)cccc2F)C(=O)N1 [DDD00197331] | 1 to 10 µM |
| O=C1NC(=O)C(=C/C=C/c2ccccc2[N+](=O)[O-])C(=O)N1 [DDD00175834] | 1 to 10 µM |
| CCN1C(=O)NC(=O)/C(=C\C=C\c2cccc(N(C)C)c2)C1=O [DDD00197341] | 1 to 10 µM |
| O=C1NC(=O)C(=Cc2ccccn2)C(=O)N1 [DDD00175837] | > 100 µM |

| Structure (SMILES) | IC50 |
| --- | --- |
| CN1C(=O)C(=C/C=C/c2ccccc2F)C(=O)N(C)C1=O [DDD00175811] | 1 to 10 µM |
| CCN1C(=O)C(=C/C=C/c2cccc(Cl)c2)C(=O)N(CC)C1=S [DDD00175293] | 31.6 to 100 µM |
| O=C1NC(=O)C(=C/C=C/c2ccc(F)cc2)C(=O)N1 [DDD00175842] | 1 to 10 µM |
| O=C1NC(=O)C(=C/C=C/c2ccccc2Cl)C(=O)N1 [DDD00175339] | 1 to 10 µM |
| CN(C)c1ccc(/C=C/C=C2C(=O)NC(=O)NC2=O)cc1 [DDD00175803] | 10 to 31.6 µM |
| O=C1NC(=O)C(=Cc2ccncc2)C(=O)N1 [DDD00175820] | > 100 µM |
| COc1ccccc1/C=C/C=C1C(=O)NC(=S)NC1=O [DDD00175819] | 1 to 10 µM |
| CCN1C(=O)/C(=C/C=C/c2cccc(F)c2)C(=O)NC1=S [DDD00197354] | 10 to 31.6 µM |
| CCN1C(=O)/C(=C\C=C\c2ccco2)C(=O)N(C2CCOCC2)C1=O [DDD00175792] | 10 to 31.6 µM |
| CCN1C(=O)C(=C/C=C/c2ccc(OC)cc2)C(=O)N(CC)C1=S [DDD00175800] | 31.6 to 100 µM |
| CCN1C(=O)NC(=O)/C(=C\C=C\c2ccccc2F)C1=O [DDD00175810] | 1 to 10 µM |
| CCN1C(=O)NC(=O)/C(=C\C=C\c2ccc(OC)cc2)C1=O [DDD00175797] | 1 to 10 µM |
| CCN1C(=O)/C(=C/C=C/c2ccc(F)cc2)C(=O)NC1=S [DDD00175840] | 31.6 to 100 µM |
| COc1ccc(/C=C/C=C2C(=O)NC(=S)NC2=O)cc1 [DDD00175805] | 1 to 10 µM |
| O=C1NC(=O)C(=Cc2cccnc2)C(=O)N1 [DDD00175833] | > 100 µM |
| O=C1NC(=S)NC(=O)C1=C/C=C/c1ccccc1F [DDD00197349] | 1 to 10 µM |
| COc1ccc(/C=C/C=C2C(=O)N(C)C(=O)N(C)C2=O)cc1 [DDD00175794] | 1 to 10 µM |
| CCN1C(=O)C(=C/C=C/c2ccc(C)cc2)C(=O)N(CC)C1=S [DDD00175807] | 31.6 to 100 µM |
| CN1C(=O)C(=C/C=C/c2cccc(F)c2)C(=O)N(C)C1=O [DDD00197351] | 1 to 10 µM |
